Measured values from paper PMC12814364 (Journal of the American Chemical Society, 2025).
Entries after “also recorded” stand apart in the source; their conditions may differ.

Biological target: HBHA110–199 (Mycobacterium tuberculosis, UniProt P9WIP9)
Assay: ITC binding of HS hexadecasaccharides with HBHA110–199

Chain of HBHA110–199 (P9WIP9 110-199): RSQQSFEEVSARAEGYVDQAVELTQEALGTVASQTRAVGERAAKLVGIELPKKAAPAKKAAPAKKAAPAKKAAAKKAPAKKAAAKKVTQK

Compound	n (sugar-to-protein binding ratio) (25 °C, Tris buffer pH 7.6)	ΔG (25 °C, Tris buffer pH 7.6)	ΔH (25 °C, Tris buffer pH 7.6) [kcal/mol]	–TΔS (25 °C, Tris buffer pH 7.6)	Kd (Tris buffer pH 7.6, 25 °C, two trials, average ± standard deviation, read-out: dissociation constant, KD) [nM]	dissociation constant, KD (Tris buffer pH 7.6, 25 °C, two trials, average ± standard deviation)
O=C(O)[C@@H]1O[C@@H](O[C@H]2[C@H](O)[C@@H](NS(=O)(=O)O)[C@@H](O[C@H]3[C@H](O)[C@@H](O)[C@H]4OC[C@@H]3O4)O[C@@H]2COS(=O)(=O)O)[C@H](O)[C@@H](O)[C@@H]1O[C@H]1O[C@H](COS(=O)(=O)O)[C@@H](O[C@@H]2O[C@@H](C(=O)O)[C@@H](O[C@H]3O[C@H](COS(=O)(=O)O)[C@@H](O[C@@H]4O[C@@H](C(=O)O)[C@@H](O[C@H]5O[C@H](COS(=O)(=O)O)[C@@H](O[C@@H]6O[C@@H](C(=O)O)[C@@H](O[C@H]7O[C@H](COS(=O)(=O)O)[C@@H](O[C@@H]8O[C@@H](C(=O)O)[C@@H](O[C@H]9O[C@H](COS(=O)(=O)O)[C@@H](O[C@@H]%10O[C@@H](C(=O)O)[C@@H](O[C@H]%11O[C@H](COS(=O)(=O)O)[C@@H](O[C@@H]%12O[C@@H](C(=O)O)[C@@H](O[C@H]%13O[C@H](COS(=O)(=O)O)[C@@H](O)[C@H](O)[C@H]%13NS(=O)(=O)O)[C@H](O)[C@H]%12O)[C@H](O)[C@H]%11NS(=O)(=O)O)[C@H](O)[C@H]%10O)[C@H](O)[C@H]9NS(=O)(=O)O)[C@H](O)[C@H]8O)[C@H](O)[C@H]7NS(=O)(=O)O)[C@H](O)[C@H]6O)[C@H](O)[C@H]5NS(=O)(=O)O)[C@H](O)[C@H]4O)[C@H](O)[C@H]3NS(=O)(=O)O)[C@H](O)[C@H]2O)[C@H](O)[C@H]1NS(=O)(=O)O [compound 32]	0.30 ± 0.01	–7.69 ± 0.08 kcal/mol	11.50 ± 0.28	–19.15 ± 0.21 kcal/mol	2360 ± 300	–
CC(=O)N[C@H]1[C@@H](O[C@H]2[C@H](O)[C@@H](OS(=O)(=O)O)[C@H]3OC[C@@H]2O3)O[C@H](CO)[C@@H](O[C@@H]2O[C@@H](C(=O)O)[C@@H](O[C@H]3O[C@H](CO)[C@@H](O[C@@H]4O[C@@H](C(=O)O)[C@@H](O[C@H]5O[C@H](CO)[C@@H](O[C@@H]6O[C@@H](C(=O)O)[C@@H](O[C@H]7O[C@H](CO)[C@@H](O[C@@H]8O[C@@H](C(=O)O)[C@@H](O[C@H]9O[C@H](CO)[C@@H](O[C@@H]%10O[C@@H](C(=O)O)[C@@H](O[C@H]%11O[C@H](CO)[C@@H](O[C@@H]%12O[C@@H](C(=O)O)[C@@H](O[C@H]%13O[C@H](CO)[C@@H](O[C@@H]%14O[C@@H](C(=O)O)[C@@H](O[C@H]%15O[C@H](CO)[C@@H](O)[C@H](O)[C@H]%15NC(C)=O)[C@H](O)[C@H]%14OS(=O)(=O)O)[C@H](O)[C@H]%13NC(C)=O)[C@H](O)[C@H]%12OS(=O)(=O)O)[C@H](O)[C@H]%11NC(C)=O)[C@H](O)[C@H]%10OS(=O)(=O)O)[C@H](O)[C@H]9NC(C)=O)[C@H](O)[C@H]8OS(=O)(=O)O)[C@H](O)[C@H]7NC(C)=O)[C@H](O)[C@H]6OS(=O)(=O)O)[C@H](O)[C@H]5NC(C)=O)[C@H](O)[C@H]4OS(=O)(=O)O)[C@H](O)[C@H]3NC(C)=O)[C@H](O)[C@H]2OS(=O)(=O)O)[C@@H]1O [compound 26]	–	–	–	–	–	no detectable binding; also recorded: no binding detected
